# From patent publication US9840478B2 (MERCK SHARP & DOHME CORP., priority 2013, dated 2017)
# System: HIV-1 (H9IIIB strain)
# Test: Cell-based HIV infection assay using a reporter (Cell-Based), MT4-GFP cells
# Settings: Human immunodeficiency virus 1, MT4-GFP cells infected with HIV-1 H9IIIB; 50% normal human serum; mean of at least two independent experiments; read-out: Cell-based IP
# Procedure, shortened: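 IC50 from 4-parameter dose-response of % viral growth inhibition, using the 48 h/24 h infected-cell ratio scaled between DMSO and a protease/integrase/NNRTI triple-drug control. Assay used MT4 cells with HIV-LTR-GFP reporter, pre-infected 24 h with HIV-1 H9IIIB, in 50% normal human serum.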
row,Compound,IC50
1,"COc1ccc(S(=O)(=O)N2[C@@H](CCc3c(F)cncc3NC(=O)[C@@H](N)[C@@H](c3ccc(Cl)cc3)C3CCOCC3)CNC[C@@H]2C)cc1 [Example 9, (2S,3R)-2-Amino-3-(4-chlorophenyl)-N-(5-fluoro-4-(2-((2S,6S)-1-((4-methoxyphenyl)sulfonyl)-6-methylpiperazin-2-yl)ethyl)pyridin-3-yl)-3-(tetrahydro-2H-pyran-4-yl)propanamide]",7.1 nM
2,"COC(=O)N[C@H](C(=O)Nc1cccc(F)c1CC[C@H]1CNC[C@@H](C)N1S(=O)(=O)C1CC1)[C@@H](c1ccc(Cl)cc1)c1ccc(OC)nc1 [Example 153, (βS)-4-chloro-N-(2-{2-[(2S,6R)-1-(cyclopropylsulfonyl)-6-methylpiperazin-2-yl]ethyl}-3-fluorophenyl)-Nα-(methoxycarbonyl)-β-(6-methoxypyridin-3-yl)-L-phenylalaninamide]",28 nM
3,"N[C@H](C(=O)Nc1cccc(F)c1CC[C@H]1CNCCN1S(=O)(=O)c1ccccc1)[C@@H](c1ccc(Cl)cc1)c1cncc(C(F)(F)F)c1 [Example 6, (2S,3S)-2-amino-3-(4-chlorophenyl)-N-(3-fluoro-2-(2-((S)-1-(phenylsulfonyl)piperazin-2-yl)ethyl)phenyl)-3-(5-(trifluoromethyl)pyridine-3-yl)propanamide]",7.8 nM
4,"COC(=O)N[C@H](C(=O)NC1CCCC1CC[C@H]1CNCCN1S(C)(=O)=O)C(c1ccc(F)cc1)c1ccc(F)cc1 (stereo partly drawn) [Example 352, 4-fluoro-beta-(4-fluorophenyl)-Nalpha-(methoxycarbonyl)-N-(2-{2-[(2S)-1-(methylsulfonyl)piperazin-2-yl]ethyl}cyclopentyl)-L-phenylalaninamide]",190 nM
5,"O=C(C[C@@H](c1ccc(F)cc1)c1cc(F)cc(F)c1)Nc1cncc(F)c1CC[C@H]1CNCCN1S(=O)(=O)c1ccccn1 [Example 304, (3S)-3-(3,5-difluorophenyl)-3-(4-fluorophenyl)-N-(5-fluoro-4-{2-[(2S)-1-(pyridin-2-ylsulfonyl)piperazin-2-yl]ethyl}pyridin-3-yl)propanamide]",3.6 nM
6,"C[C@H]1CNC[C@H](CCc2c(F)cncc2NC(=O)[C@@H](N)[C@@H](c2ccc(Cl)cc2)C2CCOCC2)N1S(=O)(=O)c1ccccc1 [Example 277, (βR)-4-chloro-N-(5-fluoro-4-{2-[(2S,6S)-6-methyl-1-(phenylsulfonyl)piperazin-2-yl]ethyl}pyridin-3-yl)-β-(tetrahydro-2H-pyran-4-yl)-L-phenylalaninamide]",15 nM
7,"O=C(C[C@@H](c1ccc(F)cc1)c1cc(F)cc(F)c1)Nc1cncc(F)c1CC[C@H]1CNCCN1S(=O)(=O)Cc1ccc(C(F)(F)F)cc1 [Example 310, (3S)-3-(3,5-difluorophenyl)-3-(4-fluorophenyl)-N-(5-fluoro-4-{2-[(2S)-1-{[4-(trifluoromethyl)benzyl]sulfonyl}piperazin-2-yl]ethyl}pyridin-3-yl)propanamide]",1700 nM
8,"COC(=O)N[C@H](C(=O)Nc1cccc(F)c1CC[C@H]1CNC[C@H](C)N1S(C)(=O)=O)[C@@H](c1ccc(Cl)cc1)c1ccc(OC)nc1 [Example 165, (βS)-4-chloro-N-(3-fluoro-2-{2-[(2S,6S)-6-methyl-1-(methylsulfonyl)piperazin-2-yl]ethyl}phenyl)-Nα-(methoxycarbonyl)-β-(6-methoxypyridin-3-yl)-L-phenylalaninamide]",17 nM
9,"COC(=O)N[C@H](C(=O)Nc1cccc(F)c1CC[C@H]1CNC[C@@H](C)N1S(=O)(=O)c1ccccc1)[C@@H](Cc1ccc(F)cc1)c1ccc(Cl)cc1 [Example 196, (βS)-4-chloro-β-(4-fluorobenzyl)-N-(3-fluoro-2-{2-[(2S,6R)-6-methyl-1-(phenylsulfonyl)piperazin-2-yl]ethyl}phenyl)-Nα-(methoxycarbonyl)-L-phenylalaninamide]",49 nM
10,"Cn1ccc(S(=O)(=O)N2CCNC[C@@H]2CCc2c(F)cncc2NC(=O)C[C@@H](c2ccc(F)cc2)c2cc(F)cc(F)c2)n1 [Example 306, (3S)-3-(3,5-difluorophenyl)-N-[5-fluoro-4-(2-{(2S)-1-[(1-methyl-1H-pyrazol-3-yl)sulfonyl]piperazin-2-yl}ethyl)pyridin-3-yl]-3-(4-fluorophenyl)propanamide]",6.5 nM
11,"N[C@H](C(=O)Nc1cccc(F)c1CCC1CNCCN1S(=O)(=O)c1ccccc1)C(c1cc(F)cc(F)c1)c1cc(F)cc(F)c1 (stereo partly drawn) [Example 34, β-(3,5-difluorophenyl)-3,5-difluoro-N-(3-fluoro-2-{2-[1-(phenylsulfonyl)piperazin-2-yl]ethyl}phenyl)-L-phenylalaninamide]",16 nM
12,"N[C@H](C(=O)Nc1cccc(F)c1CC[C@H]1CNCCN1S(=O)(=O)c1ccccc1)[C@@H](c1ccc(Cl)c(F)c1)C1CCOCC1 [Example 37, (βR)-4-chloro-3-fluoro-N-(3-fluoro-2-{2-[(2S)-1-(phenylsulfonyl)piperazin-2-yl]ethyl}phenyl)-β-(tetrahydro-2H-pyran-4-yl)-L-phenylalaninamide]",46 nM
13,"N[C@H](C(=O)Nc1cncc(F)c1CC[C@H]1CNCCN1S(=O)(=O)c1ccccc1)[C@@H](c1ccc(Cl)cc1)c1cccc(OC(F)(F)F)c1 [Example 45, (βS)-4-chloro-N-(5-fluoro-4-{2-[(2S)-1-(phenylsulfonyl)piperazin-2-yl]ethyl}pyridin-3-yl)-β-[3-(trifluoromethoxy)phenyl]-L-phenylalaninamide]",16 nM
14,"CC(C)[C@H](c1ccc(Cl)cc1)[C@H](N)C(=O)Nc1cccc(F)c1CC[C@H]1CNC[C@H](C)N1S(=O)(=O)c1ccccc1 [Example 109, (βR)-4-chloro-N-(3-fluoro-2-{2-[(2S,6S)-6-methyl-1-(phenylsulfonyl)piperazin-2-yl]ethyl}phenyl)-β-(1-methylethyl)-L-phenylalaninamide]",65 nM
15,"CC(C)[C@H](c1cccc(Cl)c1)[C@H](N)C(=O)Nc1cccc(F)c1CC[C@H]1CNC[C@@H](C)N1S(=O)(=O)c1ccccc1 [Example 206, (βR)-3-chloro-N-(3-fluoro-2-{2-[(2S,6R)-6-methyl-1-(phenylsulfonyl)piperazin-2-yl]ethyl}phenyl)-β-(1-methylethyl)-L-phenylalaninamide]",480 nM
16,"COC(=O)N[C@H](C(=O)N[C@H]1CCC[C@@H]1CC[C@H]1CNCCN1S(=O)(=O)c1ccccc1)C(c1ccc(F)cc1)c1ccc(F)cc1 [Example 350, Methyl ((S)-1,1-bis(4-fluorophenyl)-3-oxo-3-(((1S,2R)-2-(2-((S)-1-(phenylsulfonyl)piperazin-2-yl)ethyl)cyclopentyl)amino)propan-2-yl)carbamate]",12 nM
17,"COC(=O)N[C@H](C(=O)Nc1cncc(F)c1CC[C@H]1CNC[C@@H](C)N1S(=O)(=O)c1ccccc1)[C@@H](c1ccc(Cl)cc1)C1CCOCC1 [Example 279, (βR)-4-chloro-N-(5-fluoro-4-{2-[(2S,6R)-6-methyl-1-(phenylsulfonyl)piperazin-2-yl]ethyl}pyridin-3-yl)-Nα-(methoxycarbonyl)-β-(tetrahydro-2H-pyran-4-yl)-L-phenylalaninamide]",16 nM
18,"CC[C@@H]1CNC[C@H](CCc2c(F)cccc2NC(=O)[C@@H](N)[C@@H](c2ccc(F)cc2)c2cc(F)cc(F)c2)N1S(C)(=O)=O [Example 263, (βS)-β-(3,5-difluorophenyl)-N-(2-{2-[(2S,6R)-6-ethyl-1-(methylsulfonyl)piperazin-2-yl]ethyl}-3-fluorophenyl)-4-fluoro-L-phenylalaninamide]",77 nM
19,"C[C@H]1CNC[C@H](CCc2c(F)cncc2NC(=O)[C@@H](N)[C@@H](c2ccc(F)cc2)c2cc(F)cc(F)c2)N1S(C)(=O)=O [Example 191, (βS)-β-(3,5-difluorophenyl)-4-fluoro-N-(5-fluoro-4-{2-[(2S,6S)-6-methyl-1-(methylsulfonyl)piperazin-2-yl]ethyl}pyridin-3-yl)-L-phenylalaninamide]",20 nM
20,"N[C@H](C(=O)Nc1cccc(F)c1CC[C@H]1CNCCN1S(=O)(=O)c1ccccc1)C(c1ccc(F)cc1)c1ccc(F)cc1 [Example 32, (S)-2-amino-N-(3-fluoro-2-(2-((S)-1-(phenylsulfonyl)piperazin-2-yl)ethyl)phenyl)-3,3-bis(4-fluorophenyl) propanamide]",6.6 nM
21,"C[C@H]1CNC[C@@H](CCc2c(F)cccc2NC(=O)CC(c2ccc(F)cc2)c2ccc(F)cc2)N1S(=O)(=O)c1ccccc1 [Example 93, N-(3-fluoro-2-{2-[(2R,6S)-6-methyl-1-(phenylsulfonyl)piperazin-2-yl]ethyl}phenyl)-3,3-bis(4-fluorophenyl) propanamide]",120 nM
22,"CC[C@@H]1CNC[C@H](CCc2c(F)cccc2NC(=O)[C@@H](NC(=O)OC)[C@@H](c2ccc(Cl)cc2)C2CCOCC2)N1S(=O)(=O)c1ccccc1 [Example 267, methyl ((1R,2S)-1-(4-chlorophenyl)-3-((2-(2-((2S,6R)-6-ethyl-1-(phenylsulfonyl)piperazin-2-yl)ethyl)-3-fluorophenyl)amino)-3-oxo-1-(tetrahydro-2H-pyran-4-yl)propan-2-yl)carbamate]",24 nM

# Same assay, conditions: MT4-GFP cells infected with HIV-1 H9IIIB; 50% normal human serum; mean of at least two independent experiments; read-out: Cell-based IP
row,Compound,IC50
1,"N[C@H](C(=O)NC1CC(F)(F)CC1CC[C@H]1CNCCN1S(=O)(=O)c1ccccc1)[C@H](c1ccc(Cl)cc1)C1CCOCC1 (stereo partly drawn) [Example 361, (betaS)-4-hcloro-N-(4,4-difluoro-2-{2-[(2S)-1-(phenylsulfonyl)piperazin-2-yl]ethyl}cyclopentyl)-beta-(tetrahydro-2H-pyran-4-yl)-L-phenylalaninamide]",880 nM
2,"COCC1CNC[C@H](CCc2c(F)cccc2NC(=O)[C@@H](N)[C@@H](c2ccc(Cl)cc2)C2CCOCC2)N1S(C)(=O)=O (stereo partly drawn) [Example 218, (βR)-4-chloro-N-(3-fluoro-2-{2-[(2S)-6-(methoxymethyl)-1-(methylsulfonyl)piperazin-2-yl]ethyl}phenyl)-β-(tetrahydro-2H-pyran-4-yl)-L-phenylalaninamide]",310 nM
